The record followed here is patent US10633358B2, “T-type calcium channel inhibitor” (KINKI UNIVERSITY, priority 2013, dated 2020).

Where two headings read alike, the source gives them in different places.

In test [1] the target is T1, L-type Ca2+ channel (Rattus norvegicus, UniProt P22002).
T1 construct: A 1 mm-wide ring preparation was prepared from the thoracic aorta; from tissue; host or cells: thoracic aorta ring preparation (endothelium removed) of male Wistar rats
As to the kind of experiment: K50-induced contraction in a ring preparation of a rat aorta (endothelium removed). As to conditions: for Selectivity T-type over L-type calcium channel (in words): conclusion from Examples 1-3 and 7-9; for inhibition at 0.001 µM / inhibition at 0.003 µM / inhibition at 0.01 µM / inhibition at 0.03 µM / inhibition at 0.1 µM / inhibition at 0.3 µM / inhibition at 1 µM / inhibition at 3 µM: read-out: Inhibitory rate (%) on contraction by K50; for Action on L-type calcium channel (in words): specimen pre-contracted by K50, up to 3 μM. It counts as cell-based. As for the experimental part: For the experiment, 7 to 10 week-old male Wistar rats (Japan SLC, Inc., Shizuoka, Japan) were used. These experimental animals were bred in a chamber with a 12-hour light-dark cycle maintained at a temperature of about 24° C. while they were allowed to freely take tap water and a solid feed (Oriental Yeast Co., Ltd., Tokyo, Japan).
The rats were caused to hemorrhage to death by cutting the carotid artery under anesthesia, and the thoracic aorta was extracted. Connective tissues and fat were removed from the thoracic aorta in a cooled modified Kreb's liquid. A 1 mm-wide ring preparation was prepared from the thoracic aorta, and the lumen of the specimen was rubbed with rubber to remove the endothelium.
Two 100 μm tungsten wires were inserted into the lumen of the 1 mm-wide ring preparation, and the ring preparation was transferred to a liquid bath with a volume of 10 mL. […] The other ends of tungsten wires inserted into the lumen of the ring preparation were fixed to a tension transducer, and a change in tension of the specimen was isometrically measured. Signals from the tension transducer passed through a blood pressure amplifier to be recorded by a pen recorder. An initial stretching tension of 1 g was applied in a normal Kreb's liquid, and the specimen was equilibrated for 1 hour, and then caused to contract once by a 10^−6 M phenylephrine solution. This procedure was necessary for obtaining stable results. At the end of the experiment, verapamil (Vera) (10^−5 M) and papaverine (10^−4 M) were added to completely relax the specimen. The level at this time was set to 0 for all the measurements of a change in tension.
The reagents used were as follows. • Normal Kreb's liquid: NaCl (118 mM), KCl (4.7 mM), CaCl2 (2.5 mM), MgCl2 (1.2 mM), NaHCO3 (25 mM), KH2PO4 (1.2 mM) and glucose (10 mM) were diluted with H2O to 1 L, and ventilated for 10 minutes with a mixed gas of 95% of O2 and 5% of CO2, and 2.5 mL of a 1 M CaCl2 solution was then added. • Kreb's liquid (K50): NaCl (73.9 mM), KCl (48.8 mM), CaCl2 (2.5 mM), MgCl2 (1.2 mM), NaHCO3 (25 mM), KH2PO4 (1.2 mM) and glucose (10 mM) were diluted with H2O to 1 L, and ventilated for 10 minutes with a mixed gas of 95% of O2 and 5% of CO2, and 2.5 mL of a 1 M CaCl2 solution was then added. • Acetylcholine hydrochloride (Ach, manufactured by Sigma) • Verapamil hydrochloride (Vera, manufactured by Eisai Co., Ltd. (Tokyo)) • Papaverine hydrochloride (manufactured by Sigma) 5. Results
Thereafter, the specimen was washed three times with the Normal Kreb's liquid, and to the specimen caused to pre-contract by the Kreb's liquid (K50) containing 50 mM potassium ions, 1 μL of 1 μM of sophoraflavanone G (final concentration: 0.001 μM) dissolved in DMSO, 2 μL of 1 μM of the sophoraflavanone G (final concentration: 0.003 μM), 7 μL of 1 μM of the sophoraflavanone G (final concentration: 0.01 μM), 2 μL of 10 μM of the sophoraflavanone G (final concentration: 0.03 μM), 7 μL of 10 μM of the sophoraflavanone G (final concentration: 0.1 μM), 2 μL of 10 μM of the sophoraflavanone G (final concentration: 0.3 μM), 7 μL of 100 μM of the sophoraflavanone G (final concentration: 1 μM) and […] of the sophoraflavanone G (final concentration: 3 μM) were accumulatively added in a liquid bath containing 10 mL of the Kreb's liquid.
Except that 6-prenylnaringenin was used in place of sophoraflavanone G, the same procedure as in Example 7 was carried out to examine effects on an L-type Ca^2+ channel.
Except that 8-prenylnaringenin was used in place of sophoraflavanone G, the same procedure as in Example 7 was carried out to examine effects on an L-type Ca^2+ channel.

Test [2] relates to NaHS-induced hyperalgesia. As to the kind of experiment: Action on NaHS-induced hyperalgesia, up-and-down method using a von Frey filament. In kind it is in vivo. As to conditions: male ddY mouse; for Action on NaHS-induced hyperalgesia (in words): paw sole administration. How it is done:
Into the paw sole of a male ddY mouse, 0.1 nmol/paw (volume: 10 μL/paw) of NaHS (sodium hydrogen sulfide) was administered alone, […], and an action of sophoraflavanone G on NaHS-induced hyperalgesia was measured by an up-and-down method using a von Frey filament.
Here, NaHS (sodium hydrogen sulfide) is used as a H2S donor. H2S is a hyperalgesia-inducing substance which is involved in information transmission of pain through a Cav3.2 T-type calcium channel (see Kawabata A. et al. Hydrogen sulfide as a novel nociceptive messenger. Pain. 2007 November; 132(1-2): 74-81. Epub 2007 Mar. 7.).
Except that 6-prenylnaringenin was used in place of sophoraflavanone G, the same procedure as in Example 4 was carried out to measure an action of 6-prenylnaringenin on NaHS-induced hyperalgesia.
Except that 8-prenylnaringenin was used in place of sophoraflavanone G, the same procedure as in Example 4 was carried out to measure an action of 8-prenylnaringenin on NaHS-induced hyperalgesia.

For test [3], the target named is human T-type calcium channel (Homo sapiens, UniProt O95180). Nature of the test: cell-based. How it is done:
A T-type calcium channel inhibitory action of sophoraflavanone G was measured by a whole-cell patch method using a human renal cell-derived cell line: […] cell forced to express a human T-type calcium channel.
In the whole-cell patch method, a barium current passing as an inward current was measured in a potential jump from −80 mV to −20 mV with the holding potential set to −80 mV using, as an external solution and an internal solution, ones having the compositions shown below. Here, for eliminating influences of a high-threshold-activated-type calcium channel, a value obtained by subtracting from a peak current a current 150 ms after the start of stimulation was used as a T-current for data analysis.
External Solution Composition
Aqueous solution containing the following: 97 mM N-methyl-D-glucamine (NMDG);
10 mM 4-(2-hydroxyethyl)-1-piperazine ethanesulfonic acid (HEPES);
40 mM tetraethylammonium chloride (TEA-Cl); and
Internal Solution Composition
Aqueous solution containing the following:
5 mM glycol ether diamine tetraacetic acid (EGTA)
In FIG. 1, the data are shown as a ratio (%) of a T-current at addition of a compound to a T-current at addition of a solvent (DMSO).
Except that sophoraflavanone G was replaced by 6-prenylnaringenin, the same procedure as in Example 1 was carried out to measure a T-type calcium channel inhibitory action of […].
Except that sophoraflavanone G was replaced by 8-prenylnaringenin, the same procedure as in Example 1 was carried out to measure a T-type calcium channel inhibitory action of […].
These […] values are values calculated by GraphPad Prism® (GraphPad Software, Inc.) using the results of Examples 1 to 3.

The mark [4] stands for this setting: NaHS 0.1 nmol/paw sole + compound 0.1 nmol/paw sole.
The mark [5] stands for this setting: NaHS 0.1 nmol/paw sole + compound 1 nmol/paw sole.
[6] abbreviates: NaHS 0.1 nmol/paw sole + compound 10 nmol/paw sole.
The mark [7] stands for this setting: HEK293, read-out: Inhibition rate (%).
[8] abbreviates: 0.001 μM final concentration, accumulatively added, rat aorta ring.
[9] abbreviates: 0.003 μM final concentration, accumulatively added, rat aorta ring.
[10] abbreviates: 0.01 μM final concentration, accumulatively added, rat aorta ring.
Where [11] appears, read: 0.03 μM final concentration, accumulatively added, rat aorta ring.
Where [12] appears, read: 0.1 μM final concentration, accumulatively added, rat aorta ring.
Where [13] appears, read: 0.3 μM final concentration, accumulatively added, rat aorta ring.
[14] abbreviates: 1 μM final concentration, accumulatively added, rat aorta ring.
Setting [15] is: 3 μM final concentration, accumulatively added, rat aorta ring.

T1 sequence (P22002 whole entry): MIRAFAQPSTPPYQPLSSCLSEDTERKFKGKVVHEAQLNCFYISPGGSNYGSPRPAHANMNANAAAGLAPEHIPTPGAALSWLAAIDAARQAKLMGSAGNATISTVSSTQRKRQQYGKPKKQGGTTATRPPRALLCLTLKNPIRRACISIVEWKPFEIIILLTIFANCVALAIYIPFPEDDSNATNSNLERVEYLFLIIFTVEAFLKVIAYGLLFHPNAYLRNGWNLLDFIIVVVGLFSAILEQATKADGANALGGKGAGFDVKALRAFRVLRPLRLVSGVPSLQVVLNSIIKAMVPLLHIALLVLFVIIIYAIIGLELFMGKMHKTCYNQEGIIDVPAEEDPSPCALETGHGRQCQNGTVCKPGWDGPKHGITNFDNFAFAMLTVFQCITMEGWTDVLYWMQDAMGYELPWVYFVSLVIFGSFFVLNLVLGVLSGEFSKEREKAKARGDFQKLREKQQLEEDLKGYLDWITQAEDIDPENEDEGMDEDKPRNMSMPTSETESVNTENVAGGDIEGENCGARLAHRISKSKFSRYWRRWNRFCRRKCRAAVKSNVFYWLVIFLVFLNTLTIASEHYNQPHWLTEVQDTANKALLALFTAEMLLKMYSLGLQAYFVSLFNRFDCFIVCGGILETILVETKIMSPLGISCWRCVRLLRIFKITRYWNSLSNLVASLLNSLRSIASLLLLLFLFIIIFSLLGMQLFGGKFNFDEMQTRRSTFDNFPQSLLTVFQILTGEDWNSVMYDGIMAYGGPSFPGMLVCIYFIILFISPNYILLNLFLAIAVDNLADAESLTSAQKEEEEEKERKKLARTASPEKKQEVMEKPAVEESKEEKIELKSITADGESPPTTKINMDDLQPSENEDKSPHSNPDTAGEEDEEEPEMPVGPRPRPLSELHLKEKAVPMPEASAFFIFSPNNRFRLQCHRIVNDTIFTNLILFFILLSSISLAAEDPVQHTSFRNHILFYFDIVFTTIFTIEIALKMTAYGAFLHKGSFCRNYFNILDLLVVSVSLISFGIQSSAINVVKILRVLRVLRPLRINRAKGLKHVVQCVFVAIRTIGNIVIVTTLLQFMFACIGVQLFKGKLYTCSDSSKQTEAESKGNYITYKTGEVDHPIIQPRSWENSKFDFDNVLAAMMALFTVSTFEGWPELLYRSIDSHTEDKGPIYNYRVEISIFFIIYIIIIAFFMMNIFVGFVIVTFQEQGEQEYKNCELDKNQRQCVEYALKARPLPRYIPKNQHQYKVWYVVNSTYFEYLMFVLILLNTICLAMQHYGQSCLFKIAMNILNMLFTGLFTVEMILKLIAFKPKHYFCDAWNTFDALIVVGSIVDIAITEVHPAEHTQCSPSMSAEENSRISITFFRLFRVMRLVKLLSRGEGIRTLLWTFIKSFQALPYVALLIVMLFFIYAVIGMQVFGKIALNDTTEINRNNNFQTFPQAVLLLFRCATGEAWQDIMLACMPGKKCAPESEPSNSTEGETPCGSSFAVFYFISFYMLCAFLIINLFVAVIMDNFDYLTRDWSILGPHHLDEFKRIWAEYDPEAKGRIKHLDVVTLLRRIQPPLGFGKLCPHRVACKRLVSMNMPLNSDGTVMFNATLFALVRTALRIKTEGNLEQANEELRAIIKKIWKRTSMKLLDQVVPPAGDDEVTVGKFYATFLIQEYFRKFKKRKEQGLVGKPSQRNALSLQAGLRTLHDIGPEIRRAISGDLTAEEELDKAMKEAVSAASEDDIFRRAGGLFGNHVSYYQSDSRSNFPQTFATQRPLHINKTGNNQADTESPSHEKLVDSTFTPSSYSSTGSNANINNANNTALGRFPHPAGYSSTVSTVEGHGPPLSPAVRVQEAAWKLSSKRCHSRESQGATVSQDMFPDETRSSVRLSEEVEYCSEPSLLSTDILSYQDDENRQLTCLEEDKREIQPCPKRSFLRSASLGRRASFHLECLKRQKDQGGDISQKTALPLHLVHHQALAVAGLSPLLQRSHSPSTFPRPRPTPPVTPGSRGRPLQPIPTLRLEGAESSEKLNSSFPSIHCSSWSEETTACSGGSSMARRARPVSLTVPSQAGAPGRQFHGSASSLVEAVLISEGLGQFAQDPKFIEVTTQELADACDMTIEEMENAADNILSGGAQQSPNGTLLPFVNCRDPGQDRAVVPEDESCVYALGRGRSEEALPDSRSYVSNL
T1 sequence (P54290 25-944 partner limits assumed): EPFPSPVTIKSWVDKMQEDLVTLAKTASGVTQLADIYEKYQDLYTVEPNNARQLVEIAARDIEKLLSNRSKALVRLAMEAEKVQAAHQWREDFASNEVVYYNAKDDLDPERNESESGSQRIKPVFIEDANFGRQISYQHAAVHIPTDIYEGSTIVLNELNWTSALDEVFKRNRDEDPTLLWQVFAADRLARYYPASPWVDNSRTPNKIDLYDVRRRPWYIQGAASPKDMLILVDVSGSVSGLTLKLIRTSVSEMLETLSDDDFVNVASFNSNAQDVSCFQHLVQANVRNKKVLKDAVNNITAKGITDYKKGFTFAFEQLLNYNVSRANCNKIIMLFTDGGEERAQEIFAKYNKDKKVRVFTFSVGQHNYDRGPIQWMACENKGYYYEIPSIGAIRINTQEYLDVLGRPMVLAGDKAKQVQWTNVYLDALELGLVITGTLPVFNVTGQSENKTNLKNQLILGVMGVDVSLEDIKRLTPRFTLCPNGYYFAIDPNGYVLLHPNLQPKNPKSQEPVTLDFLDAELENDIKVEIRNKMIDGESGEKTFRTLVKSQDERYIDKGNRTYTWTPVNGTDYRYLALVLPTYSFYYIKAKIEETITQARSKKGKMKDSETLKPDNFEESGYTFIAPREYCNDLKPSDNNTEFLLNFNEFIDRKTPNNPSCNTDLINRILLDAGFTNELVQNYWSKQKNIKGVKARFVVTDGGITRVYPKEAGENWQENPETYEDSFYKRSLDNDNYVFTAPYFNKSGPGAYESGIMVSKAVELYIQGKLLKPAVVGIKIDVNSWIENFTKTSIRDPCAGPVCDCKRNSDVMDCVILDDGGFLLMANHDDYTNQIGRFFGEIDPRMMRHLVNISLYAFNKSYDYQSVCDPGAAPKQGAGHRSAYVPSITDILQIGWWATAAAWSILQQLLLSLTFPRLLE
T1 sequence (P54290 945-1091 partner limits assumed): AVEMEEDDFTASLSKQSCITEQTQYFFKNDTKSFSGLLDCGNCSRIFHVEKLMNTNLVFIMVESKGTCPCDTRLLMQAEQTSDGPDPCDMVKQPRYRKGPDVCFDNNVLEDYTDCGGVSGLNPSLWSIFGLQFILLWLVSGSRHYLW

In the case of `CC(C)=CCc1c(O)cc2c(c1O)C(=O)C[C@@H](c1ccc(O)cc1)O2` [6-Prenylnaringenin, (2S)-5,7-dihydroxy-2,3-dihydro-2-(4-hydroxyphenyl)-6-(3-methyl-2-butenyl)-4H-1-benzopyran-4-one], in test [1], the “Selectivity T-type over L-type calcium channel (in words)” value is listed as “T-type calcium channel-specific inhibitor”, the inhibition at 0.001 µM worked out at 0%, the inhibition at 0.003 µM was 0% and the inhibition at 0.01 µM came to 4.1%. Also, in test [1], the inhibition at 0.03 µM was 6.1%, the inhibition at 0.1 µM was 4.1%, the inhibition at 0.3 µM was determined as 4.1% and the inhibition at 1 µM is 4.1%. For the same molecule, in test [1], the inhibition at 3 µM was 4.1% and the “Action on L-type calcium channel (in words)” value was “does not act on an L-type calcium channel”. Also, the “Hyperalgesia threshold (g) Average value ± standard error” value in test [2] (setting [4]) is 0.28 ± 0.07 g. Also, the “Hyperalgesia threshold (g) Average value ± standard error” value in test [2] (setting [5]) stood at 0.31 ± 0.06 g. Besides, the “Hyperalgesia threshold (g) Average value ± standard error” value in test [2] (setting [6]) is 0.52 ± 0.09 g. In test [2], the “Action on NaHS-induced hyperalgesia (in words)” value was “inhibits NaHS-induced hyperalgesia”. Further, in test [3] (setting [7]), the inhibition at 0.3 µM was determined as 0%, the inhibition at 1 µM is 82.7% and the inhibition at 3 µM is 99%.
For `CC(C)=CCc1c(O)cc(O)c2c1O[C@H](c1ccc(O)cc1)CC2=O` [8-Prenylnaringenin, (2S)-5,7-dihydroxy-2,3-dihydro-2-(4-hydroxyphenyl)-8-(3-methyl-2-butenyl)-4H-1-benzopyran-4-one], the inhibition at 0.001 µM in test [1] (setting [8]) worked out at 0%. Further, in test [1] (setting [9]), the inhibition at 0.003 µM came to 0%. For the same molecule, in test [1] (setting [10]), the inhibition at 0.01 µM worked out at 7.4%. Besides, in test [1] (setting [11]), the inhibition at 0.03 µM is 0%. In addition, the inhibition at 0.1 µM in test [1] (setting [12]) is 11.1%. Moreover, the inhibition at 0.3 µM in test [1] (setting [13]) was determined as 14.8%; in test [3] (HEK293, compound concentration 300 nM, T-current, HEK 293 cell expressing human T-type calcium channel, read-out: Inhibition rate (%)) it was 16.4%. Further, the inhibition at 1 µM stood at 22.2% in test [1] (setting [14]) and 64.9% in test [3] (HEK293, compound concentration 1000 nM, T-current, HEK 293 cell expressing human T-type calcium channel, read-out: Inhibition rate (%)). Moreover, the inhibition at 3 µM in test [1] (setting [15]) is 25.9%; in test [3] (HEK293, compound concentration 3000 nM, T-current, HEK 293 cell expressing human T-type calcium channel, read-out: Inhibition rate (%)) it was 91%. For the same molecule, the “Selectivity T-type over L-type calcium channel (in words)” value in test [1] is “T-type calcium channel-specific inhibitor”. In addition, the “Action on L-type calcium channel (in words)” value in test [1] is on record as “does not act on an L-type calcium channel”. In addition, the “Hyperalgesia threshold (g) Average value ± standard error” value in test [2] (setting [4]) amounted to 0.23 ± 0.04 g; in test [2] (setting [5]), 0.41 ± 0.04 g; in test [2] (setting [6]), 0.55 ± 0.05 g. In test [2], the “Action on NaHS-induced hyperalgesia (in words)” value is reported as “inhibits NaHS-induced hyperalgesia”. In addition, in test [3] (HEK293, compound concentration 10000 nM, T-current, HEK 293 cell expressing human T-type calcium channel, read-out: Inhibition rate (%)), the inhibition at 10 µM is 99.9%.
For `C=C(C)[C@H](CC=C(C)C)Cc1c(O)cc(O)c2c1O[C@H](c1ccc(O)cc1O)CC2=O` [Sophoraflavanone G, (2S)-5,7-dihydroxy-2,3-dihydro-2-(2,4-dihydroxyphenyl)-8-[(R)-5-methyl-2-(1-methylethenyl)-4-hexenyl]-4H-1-benzopyran-4-one], the inhibition at 0.001 µM in test [1] (setting [8]) came to 0%. Further, the inhibition at 0.003 µM in test [1] (setting [9]) worked out at 0%. In addition, the inhibition at 0.01 µM in test [1] (setting [10]) was 5.6%. Moreover, the inhibition at 0.03 µM in test [1] (setting [11]) was 5.6%. For the same molecule, the inhibition at 0.1 µM in test [1] (setting [12]) stood at 5.6%. In test [1] (setting [13]), the inhibition at 0.3 µM was 5.6%. Further, the inhibition at 1 µM is 11.1% in test [1] (setting [14]) and 61.1% in test [3] (setting [7]). Besides, the inhibition at 3 µM is 8.3% in test [1] (setting [15]) and 97.7% in test [3] (setting [7]). The “Selectivity T-type over L-type calcium channel (in words)” value in test [1] is on record as “T-type calcium channel-specific inhibitor”. The “Action on L-type calcium channel (in words)” value in test [1] was “does not act on an L-type calcium channel”. Moreover, the “Hyperalgesia threshold (g) Average value ± standard error” value in test [2] (NaHS 0.1 nmol/paw sole + compound 1 pmol/paw sole) is 0.11 ± 0.04 g; in test [2] (NaHS 0.1 nmol/paw sole + compound 10 pmol/paw sole), 0.35 ± 0.07 g; in test [2] (NaHS 0.1 nmol/paw sole + compound 30 pmol/paw sole), 0.34 ± 0.10 g. The “Action on NaHS-induced hyperalgesia (in words)” value in test [2] is listed as “inhibits NaHS-induced hyperalgesia”. The inhibition at 0.5 µM in test [3] (setting [7]) came out at 25.9%.
